Measured values reported in PMC11249646, “Small-Molecule Disruptors of the Interaction between Calcium- and Integrin-Binding Protein 1 and Integrin αIIbβ3 as Novel Antiplatelet Agents” (ACS Pharmacology & Translational Science, 2024).
Like-named read-outs stand apart in the source and are kept apart here.

Experiments:
Assay type in all cases: binding
[1] = biological target: T1, GST-CIB1 : F-αIIb peptide (Homo sapiens, UniProt Q99828); experiment: FP assay in the presence of glutathione (GSH), thiol reactivity
T1 construct: made in house; host or cells: BL-21 plus RIL cells (E. coli)
T1 sequence (Q99828 1-191): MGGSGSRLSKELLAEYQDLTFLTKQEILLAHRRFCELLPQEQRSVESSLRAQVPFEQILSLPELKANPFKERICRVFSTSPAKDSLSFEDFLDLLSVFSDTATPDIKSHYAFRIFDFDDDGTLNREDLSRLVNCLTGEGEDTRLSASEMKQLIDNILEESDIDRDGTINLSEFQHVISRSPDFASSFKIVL

[2] = biological target: T2, CIB1 and αIIb interaction (GST-CIB1 : F-αIIb peptide) (Homo sapiens, UniProt Q99828); experiment: FP assay, 384-well format (screen); parameters: 384-well SCREEN Efficacy (%): concentration or dose not given beside the values; conditions: for 384-well SCREEN Efficacy (%) / 384-well SCREEN Confirm? / IC50: F-αIIb peptide; for 384-well SCREEN Confirm?: YES/NO; for IC50: read-out: 384-well SCREEN IC50
T2 construct: made in house; host or cells: BL-21 plus RIL cells (E. coli)
T2 sequence (Q99828 1-191): T1 sequence (Q99828 1-191)

[3] = biological target: T3, GST-CIB1 : F-scrambled peptide (Homo sapiens, UniProt Q99828); experiment: FP scrambled-peptide counter screen, 384-well format; conditions: F-scrambled peptide; for 384-well COUNTERSCREEN Confirm?: *: Curve in opposite direction; for IC50: read-out: 384-well COUNTERSCREEN IC50
T3 construct: made in house; host or cells: BL-21 plus RIL cells (E. coli)
T3 sequence (Q99828 1-191): T1 sequence (Q99828 1-191)

[4] = biological target: T4, CIB1 and αIIb interaction (CIB1-GST : F-αIIb peptide) (Homo sapiens, UniProt Q99828); experiment: FP assay, 1536-well qHTS format (primary and confirmatory screen); conditions: for CONFIRMATORY SCREEN Confirm?: YES/NO call; for CONFIRMATORY SCREEN Curve Class: qHTS curve class; for CONFIRMATORY SCREEN Curve Class / Curve Class: negative sign = inhibitory curve; for CONFIRMATORY SCREEN Efficacy (%) / Efficacy (%): negative = inhibition
T4 construct: made in house; host or cells: BL-21 plus RIL cells (E. coli)
T4 sequence (Q99828 1-191): T1 sequence (Q99828 1-191)

[5] = biological target: T3, GST-CIB1 : F-scrambled peptide; experiment: FP scrambled-peptide counter screen, 1536-well format; conditions: scrambled-peptide counterscreen; for COUNTERSCREEN Confirm?: YES/NO call; for COUNTERSCREEN Curve Class: qHTS curve class; for IC50: read-out: COUNTERSCREEN IC50
[6] = confirmatory screen, read-out: CONFIRMATORY SCREEN IC50
[7] = qHTS FP screen hits, Table S2, one class per curve where COUNT > 1
[8] = qHTS FP screen hits, Table S2, read-out: IC50
[9] = qHTS primary screen hits, Table S2
[10] = qHTS primary screen hits, Table S2, read-out: IC50
[11] = qHTS primary screen hits, Table S2, several classes where COUNT > 1

384-well SCREEN Efficacy (%) [2] [%]	384-well SCREEN Confirm? [2]	IC50 [2] [µM]	384-well COUNTERSCREEN Efficacy (%) [3] [%]	384-well COUNTERSCREEN Confirm? [3]	IC50 [3] [µM]	CONFIRMATORY SCREEN Confirm? ([4]; confirmatory screen)	CONFIRMATORY SCREEN Curve Class ([4]; confirmatory screen)	CONFIRMATORY SCREEN Efficacy (%) ([4]; confirmatory screen)	IC50 [4, 6] [µM]	IC50 [4, 8] [µM]	COUNTERSCREEN Efficacy (%) [5] [%]	COUNTERSCREEN Confirm? [5]	COUNTERSCREEN Curve Class [5]	Efficacy (%) [4, 9] [%]	IC50 [4, 10] [µM]	Structure (SMILES)	Efficacy (%) ([4]; qHTS FP screen hits, Table S2)	Curve Class [4, 7]	also measured
42	YES	10	74	YES	> 120	YES	-1.2	-38	8.9	–	14	YES	4	-54	7.1	O=C1C=CC(=O)N1c1cccc(Br)c1 [NCGC00373120-01]	–	–	Curve Class [4, 9]: -1.2
70	YES	63.4	0	YES	> 120	YES	-2.2	-63	44.7	39.8	-27	YES	4	–	–	O=C(O)c1cccc(CN2C(=O)/C(=C(\c3ccccc3)c3ccc(Cl)cc3)c3ccccc32)c1 [NCGC00378823-01]	-34	-1.2	–
70	YES	0.32	30	YES*	> 120	YES	-1.2	-63	0.4	2.2	21	YES	4	–	–	CC[S+]([O-])c1nc(-c2cccc(OCc3ccccc3)c2)cc(C(F)(F)F)n1 (stereo not drawn) [NCGC00379201-03]	-39	-1.2	–

The remaining lines, values behind:

Structure (SMILES)	384-well SCREEN Efficacy (%) [2] [%]	384-well SCREEN Confirm? [2]	IC50 [2] [µM]	384-well COUNTERSCREEN Efficacy (%) [3] [%]	384-well COUNTERSCREEN Confirm? [3]	IC50 [3] [µM]	CONFIRMATORY SCREEN Confirm? ([4]; confirmatory screen)	CONFIRMATORY SCREEN Curve Class ([4]; confirmatory screen)	CONFIRMATORY SCREEN Efficacy (%) ([4]; confirmatory screen)	IC50 [4, 6] [µM]	IC50 [4, 8] [µM]	COUNTERSCREEN Efficacy (%) [5] [%]	COUNTERSCREEN Confirm? [5]	COUNTERSCREEN Curve Class [5]	Efficacy (%) [4, 9] [%]	IC50 [4, 10] [µM]	Efficacy (%) ([4]; qHTS FP screen hits, Table S2)	Curve Class [4, 7]	also measured
S=C(SSC(=S)N1CCCCC1)N1CCCCC1 [NCGC00181776-01]	–	–	–	–	–	–	–	–	–	–	–	–	–	–	–	–	–	–	IC50 ([1]; GSH (+) Assay IC50, FP assay in the presence of glutathione (GSH +)): > 120 µM; IC50 ([1]; GSH (-) Assay IC50, FP assay without glutathione (GSH -)): 4.6 µM; GSH/CIB1 IC50 ratio ([1]; ratio of GSH (+) IC50 to GSH (-) IC50): 30.8
Nc1c(Cc2ccc(S(N)(=O)=O)cc2)c(-c2cccc(-c3ccccc3)c2)nn1-c1nc(C(=O)O)cs1.O=C(O)C(F)(F)F [NCGC00356752-02]	49	YES	14.1	34	Inconclusive	1.6	YES	-2.2	-78	39.8	28.2	0	YES	4	–	–	-54	-2.2	Confirm and Selective? ([2]; selective toward αIIb: negative curve class and/or IC50 ratio of >3-fold and/or >2-fold efficacy vs scrambled peptide): Inconclusive
COC(=O)C12C(=O)C(C)(O)C(=O)C1(C)C(C)=CC1C34CCC(OC3=O)C(C)(CO)C4CCC12C (stereo not drawn) [NCGC00380147-01]	80	YES	32.8	-50	–	26.4	YES	-2.2	-42	17.8	28.2	-27	YES	4	–	–	-32	-2.2	–
Cc1ccc(-c2cc(-c3nn(-c4nc(C(=O)O)cs4)c(CC4CC4)c3Cc3ccc(S(N)(=O)=O)c(F)c3)ccc2F)s1.Cl [NCGC00388587-02]	84	–	> 120	242	–	50.1	YES	-2.4	-66	20	–	32	YES	4	-23	28.2	–	–	Curve Class [4, 11]: -1.4
Cc1ccc(-c2cc(-c3nn(-c4nc(C(=O)O)cs4)c(CC4CC4)c3Cc3ccc(S(N)(=O)=O)c(F)c3)ccc2F)o1 [NCGC00389082-01]	60	YES	4.5	158	YES	39.8	YES	-3	-77	28.2	–	154	YES	–	-40	22.4	–	–	Curve Class [4, 11]: -2.4; IC50 [5]: 79.4 µM
COc1ccc2c(c1)C=C1Cn3c-2c(C2CCCCC2)c2ccc(cc23)C(=O)NS(=O)(=O)N(C)CCOCCN(C)C1=O [NCGC00482982-02]	35	YES	30.1	25	YES*	> 120	YES	-2.2	-52	39.8	56.2	101	YES	–	–	–	-35	-2.2	IC50 [5]: 70.8 µM
N#Cc1ccc(N2N=C3c4ccc(C(=O)O)cc4CC[C@@H]3[C@@H]2C2CCCC2)cc1Cl [NCGC00485023-01]	-15	–	–	40	–	–	YES	-2.4	-30	–	–	165	YES	–	–	–	-32	-1.2	–
